Assay results: ChEMBL document CHEMBL1155866, “Effects of N-pyrrole substitution on the anti-biofilm activities of oroidin derivatives against Acinetobacter baumannii” (Bioorg Med Chem Lett, 2008)
pEC50, pIC50: −log10 of the molar value.

Legend:
Acinetobacter baumannii [1] = assay: Inhibition of […] biofilm formation at 500 uM after 24 hrs by crystal violet reporter assay; format: functional
Acinetobacter baumannii [2] = assay: Inhibition of […] biofilm formation after 24 hrs by crystal violet reporter assay; format: functional, organism-based
Acinetobacter baumannii [3] = assay: Inhibition of […] biofilm dispersion after 24 hrs by crystal violet reporter assay; format: functional, organism-based

Compound | pIC50 (Acinetobacter baumannii [2]) | pEC50 (Acinetobacter baumannii [3]) | inhibition at 500 µM (Acinetobacter baumannii [1])
CCn1c(C(=O)NCCCc2c[nH]c(N)n2)cc(Br)c1Br |  |  | 10.3%
Nc1nc(CCCNC(=O)c2cc(Br)c(Br)n2-c2ccc(Br)cc2)c[nH]1 | 4.57 | 4.38 | 
Nc1nc(CCCNC(=O)c2cc(Br)c(Br)n2Cc2ccccc2)c[nH]1 | 4.45 |  | 
Cn1c(C(=O)NCCCc2c[nH]c(N)n2)nc(Br)c1Br |  |  | 50.7%
COc1ccc(Cn2c(C(=O)NCCCc3c[nH]c(N)n3)cc(Br)c2Br)cc1 | 4.37 |  | 
Cn1c(C(=O)NCCCc2c[nH]c(N)n2)cc(Br)c1Br [DIHYDROSVENTRIN] | 3.96 |  | > 99%

More lines, in order of rising pIC50 (Acinetobacter baumannii [2]), values ahead:

pIC50 (Acinetobacter baumannii [2]) | pEC50 (Acinetobacter baumannii [3]) | Compound | inhibition at 500 µM (Acinetobacter baumannii [1])
4.01 |  | Nc1nc(CCCNC(=O)c2cc(Br)c(Br)n2-c2ccccc2)c[nH]1 | 
4.39 |  | Nc1nc(CCCNC(=O)c2cc(Br)c(Br)n2CCc2ccccc2)c[nH]1 | 
4.39 |  | Nc1nc(CCCNC(=O)c2cc(Br)c(Br)n2C2CCCC2)c[nH]1 | 
